The test system of assay [1] is Male Wistar rats. The assay can be described thus: Acute activity after single p.o. administration, paw withdrawal test (Randall and Selitto), % of analgesia. In kind it is in vivo, rat. On the procedure: (§1) Male Wistar rats (250-300 g) were housed in a room maintained at a temperature of 20±2° C. under 12 h-12 h light-dark cycles. The animals had free access to food and water. Experimental groups consisted of six rats.
(§2) Drugs • Morphine at a dose of 15 mg/kg, codeine at a dose of 175 mg/kg, tramadol at a dose of 125 mg/kg and oxycodone at a dose of 5 mg/kg were dissolved in distilled water; • Dihydrocodeine at a dose of 50 mg/kg was suspended in 1% solution of methylcellulose; • Magnesium lactate (in micronized form)—at a dose of 15 mg magnesium ions/kg (150 mg of magnesium lactate/kg) was suspended in 0.5% solution of methylcellulose; • Magnesium lactate in normal (non-micronized) form—at doses of 15 or 30 mg magnesium ions/kg (150 or 300 mg of magnesium lactate/kg, respectively) was suspended in 0.5% solution of methylcellulose; • Magnesium citrate (in micronized and normal form)—at a dose of 15 mg magnesium ions/kg (112 mg of magnesium citrate/kg) was dissolved in distilled water; • Magnesium hydroaspartate (in micronized and normal form)—at a dose of 15 mg magnesium ions/kg (216 mg of magnesium hydroaspartate/kg) was suspended in 0.5% solution of methylcellulose; • Magnesium chloride (in micronized and normal form)—at a dose of 15 mg magnesium ions/kg (59.5 mg of magnesium chloride/kg) was dissolved in distilled water; • Control animals received a 0.5% solution of methylcellulose, a 1% solution of methylcellulose and distilled water, respectively, according to the same time schedule.
Magnesium salts and investigated opioids were administered concomitantly.
The micronized form of magnesium salts used in experiments contains particles of magnesium compounds of size D90<50 μm.
The normal magnesium salts form used in experiments contains particles of sizes commonly available in the market.
Acute activity of investigated drugs was measured in short time periods (from 5 to 300 min) after single administration.
(§3) All drugs were administered per os (p.o.); literally—orally. However, in practice, drugs were administered intragastric via a gastric tube.
(§4) Changes in pain thresholds were determined using a mechanical stimuli—the modification of the classic paw withdrawal test described by Randall and Selitto [1957]. In order to produce mechanical stimulation, progressively increasing pressure was applied to the dorsal surface of the rat's paw using an analgesymeter. The instrument used increased the force on the paw at a rate of 32 grams per second. The nociceptive threshold was defined as force in grams, at which the rat attempted to withdraw its right hindpaw and values of pressure were recorded at this very moment. At least two observers controlled the response.
(§5) Nociceptive thresholds (average of two trials) measured for each animal before single administration of investigated drugs (measurement of acute activity) or in day 0 before the first administration (measurement of prolonged activity) constituted the baseline pain threshold—A. Next, measurements of the withdrawal threshold to mechanical stimuli were performed at 5, 15, 30, 60, 90, 120, 180, 240, 300 min after drug administration (measurements of acute activity) or every day before drug administration (measurements of prolonged activity)—B.
(§6) In all experimental sessions (i.e. every day, each drug investigated) values of thresholds obtained (B) were compared to baseline (A).
(§7) Changes in pain threshold were calculated as a percent of baseline value according to the following formula:
(§8) [formula] • C—% of analgesia; A—pressure (in g), baseline pain threshold; B—pressure (in g) in consecutive measurements.
(§9) Percents of analgesia values calculated as above for individual animals were subsequently used to calculate average values in particular experimental groups and for statistical analysis.
The results are expressed as mean values±standard deviation of the mean (±S.E.M.).

Assay [2] deals with Male Wistar rats. The assay can be described thus: Prolonged activity on repeated daily p.o. administration (7 or 10 days), paw withdrawal test (Randall and Selitto). In kind it is in vivo, rat. On the procedure: as §1, §2
Prolonged activity of the investigated drugs was measured the following day after initial administration, but before the next administration as well as after cessation of administration. Drugs were administered for seven consecutive days (administration of morphine, codeine, dihydrocodeine, oxycodone) or for ten days (administration of tramadol).
as §3, §4, §5, §6, §7, §8, §9
The results are expressed as mean values±standard […] of the mean (±S.E.M.). The statistical significance of differences between groups was evaluated by Student's t-test. p≦0.05 was accepted as statistically significant.

[3] abbreviates: single administration, 15 mg magnesium ions/kg p.o. with tramadol 125 mg/kg p.o.
The mark [4] stands for this setting: 15 mg magnesium ions/kg p.o. with oxycodone 5 mg/kg p.o., 7 consecutive days.

On to `COc1ccc2c3c1O[C@H]1[C@@H](O)CC[C@H]4[C@@H](C2)N(C)CC[C@@]341` [dihydrocodeine, reference compound], for which the “analgesic activity / pain perception threshold on separate administration (dihydrocodeine study)” value in assay [1] (single separate administration p.o., dihydrocodeine 50 mg/kg, magnesium salts 15 mg magnesium ions/kg) is on record as “only insignificantly raised the pain perception threshold (90-120 min)”. Moreover, in assay [2] (separate administration p.o., dihydrocodeine 50 mg/kg, magnesium lactate micronized 15 or normal 30 mg magnesium ions/kg), the “pain threshold on separate administration, 7 days (dihydrocodeine study)” value was “insignificantly raised the nociceptive stimulus threshold on days 6 and 7”.

Turning to `CC(O)C(=O)[O-].CC(O)C(=O)[O-].[Mg+2]` (stereo not drawn) [magnesium lactate, Magnesium lactate], in assay [1] (setting [3]), the “enhancement of tramadol analgesia lasted until” value is on record as 45 min, the “time at which enhancement of tramadol analgesia appeared” value turned out to be 5 min and the “time of maximum activity on tramadol analgesia” value is listed as 15 min. The “pain threshold one day after removal of the tested substances (oxycodone study)” value in assay [2] (15 mg magnesium ions/kg p.o. with oxycodone 5 mg/kg p.o.) is on record as “rapid return of the pain threshold to control values”. In addition, in assay [2] (setting [4]), the “course of enhancement of oxycodone analgesia” value is “reached its maximum on days 6 and 7”; the “day on which enhancement of oxycodone analgesia began” value was “third”; the “effect on long-term analgesic activity of oxycodone” value is “enhanced the long-term analgesic activity of the examined opioid”.

The values above are taken from patent US9101577B2, “Analgesic pharmaceutical composition for oral administration” (Warszawski Uniwersytet Medyczny, priority 2011, dated 2015).
